Values after ≈ are worked out from the molar mass of the structure shown.
How the values were obtained:
[1] = system: Mycobacterium tuberculosis; assay: Antimycobacterial activity against Mycobacterium tuberculosis H37Rv; format: functional
[2] = system: Mycobacterium tuberculosis; assay: Antimycobacterial activity against Mycobacterium tuberculosis; format: functional

| Structure (SMILES) | MIC90 [1] [µg/mL] | MIC90 [2] [µg/mL] |
| --- | --- | --- |
| COc1cc2ccc(Br)cc2cc1[C@@H](c1ccccc1)[C@@](O)(CCN(C)C)c1cccc(Br)c1 | 0.01 (≈ 0.0171 µM) |  |
| COc1cc2ccc(Br)cc2cc1[C@@H]1O[C@H]1CO | 0.11 (≈ 0.356 µM) | 0.13 to 0.5 (≈ 0.42 to 1.62 µM) |
| COc1cc2ccc(Br)cc2cc1[C@@H](c1ccccc1)[C@@](O)(CCN(C)C)c1cccc2ccccc12 | 0.59 (≈ 1.06 µM) |  |

Reference: ChEMBL document CHEMBL4619743, “Synthetic approaches towards bedaquiline and its derivatives” (2020)
